Values quoted from earlier work, collected in US20240189234A1, “SILICON PARTICLES FOR DRUG DELIVERY” (NACAMED AS, priority 2021, published 2024).

details: oral

Molecule | absolute bioavailability
C[C@@H]1[C@H](O)[C@@H](C)/C=C/C=C/C=C/C=C/C=C/C=C/C=C/[C@H](O[C@@H]2O[C@H](C)[C@@H](O)[C@H](N)[C@@H]2O)C[C@@H]2O[C@](O)(C[C@@H](O)C[C@@H](O)[C@H](O)CC[C@@H](O)C[C@@H](O)CC(=O)O[C@H]1C)C[C@H](O)[C@H]2C(=O)O [amphotericin B] | very low
CC[C@H]1OC(=O)[C@H](C)[C@@H](O[C@H]2C[C@@](C)(OC)[C@@H](O)[C@H](C)O2)[C@H](C)[C@@H](O[C@@H]2O[C@H](C)C[C@H](N(C)C)[C@H]2O)[C@](C)(O)C[C@@H](C)CN(C)[C@H](C)[C@@H](O)[C@]1(C)O [azithromycin] | 40%

details: calculated log P values from Foye's Principles of Medicinal Chemistry

Molecule | log P
O=C(CCCN1CCC(O)(c2ccc(Cl)cc2)CC1)c1ccc(F)cc1 [haloperidol] | 3.76
CC(CNC1CCCCC1)OC(=O)c1ccccc1 (stereo not drawn) [hexylcaine] | 3.65
CCN(CC)CCNc1ccc(CO)c2sc3ccccc3c(=O)c12 [hycanthone] | 3.81
CCc1cc2c(cc1CC)CC(NC[C@H](O)c1ccc(O)c3[nH]c(=O)ccc13)C2 [indacaterol] | 3.88
CC(=O)N(CC(C)C(=O)O)c1c(I)cc(I)c(N)c1I (stereo not drawn) [iocetamic acid] | 4.57
O=C(CCCCC(=O)Nc1c(I)cc(I)c(C(=O)O)c1I)Nc1c(I)cc(I)c(C(=O)O)c1I [iodipamide] | 5.10
CCC(Cc1c(I)cc(I)c(N)c1I)C(=O)O (stereo not drawn) [iopanoic acid] | 4.65
CCCCC1=NC2(CCCC2)C(=O)N1Cc1ccc(-c2ccccc2-c2nnn[nH]2)cc1 [irbesartan] | 5.25
CNC1(c2ccccc2Cl)CCCCC1=O (stereo not drawn) [ketamine] | 3.01
C=CCN1CC[C@]23CCCC[C@H]2[C@H]1Cc1ccc(O)cc13 [levallorphan] | 3.85
CN1CC[C@]23CCCC[C@H]2[C@H]1Cc1ccc(O)cc13 [leverphanol] | 3.26
N[C@@H](Cc1cc(I)c(Oc2ccc(O)c(I)c2)c(I)c1)C(=O)O [liothyronine] | 3.91
CN(C)C(=O)C(CCN1CCC(O)(c2ccc(Cl)cc2)CC1)(c1ccccc1)c1ccccc1 [loperamide] | 4.15
CCCCc1nc(Cl)c(CO)n1Cc1ccc(-c2ccccc2-c2nn[nH]n2)cc1 [losartan] | 3.46
CNCCCC12CCC(c3ccccc31)c1ccccc12 [maprotiline] | 4.36
Cc1ccc(Cl)c(Nc2ccccc2C(=O)O)c1Cl [meclofenamic acid] | 5.44
CN1CCN=C(c2ccccc2)c2cc(Cl)ccc21 [medazepam] | 3.89
Cc1cccc(Nc2ccccc2C(=O)O)c1C [mefenamic acid] | 4.83
CN1CCCC(CN2c3ccccc3Sc3ccccc32)C1 (stereo not drawn) [mepazine] | 5.04
CN1CCC(CN2c3ccccc3Sc3ccccc32)C1 (stereo not drawn) [methdilazine] | 4.64
COc1ccc2c(c1)N(C[C@H](C)CN(C)C)c1ccccc1S2 [methotrimeprazine] | 4.94
Cc1ccccc1N1C(=O)c2cc(S(N)(=O)=O)c(Cl)cc2NC1C (stereo not drawn) [metolazone] | 3.16
Clc1ccc(COC(Cn2ccnc2)c2ccc(Cl)cc2Cl)c(Cl)c1 (stereo not drawn) [miconazole] | 4.97
Cc1ncc2n1-c1ccc(Cl)cc1C(c1ccccc1F)=NC2 [midazolam] | 3.80
CCCCCCC(C)(C)c1cc(O)c2c(c1)OC(C)(C)C1CCC(=O)CC21 (stereo not drawn) [nabilone] | 7.25
OC(CNCC(O)C1CCc2cc(F)ccc2O1)C1CCc2cc(F)ccc2O1 (stereo not drawn) [nebivolol] | 4.08
Cc1c(O)cccc1C(=O)N[C@@H](CSc1ccccc1)[C@H](O)CN1C[C@H]2CCCC[C@H]2C[C@H]1C(=O)NC(C)(C)C [nelfinavir] | 7.28

Molecule | log P
CNCCC=C1c2ccccc2CCc2ccccc21 [nortriptyline] | 3.97
CO[C@@H]1[C@@H](OC(N)=O)[C@@H](O)[C@H](Oc2ccc3c(O)c(NC(=O)c4ccc(O)c(CC=C(C)C)c4)c(=O)oc3c2C)OC1(C)C [novobiocin] | 3.74
Cc1ccccc1C(OCCN(C)C)c1ccccc1 (stereo not drawn) [orphenadrine] | 3.33
CCN(CC)CCCC(C)Nc1cc(OC)cc2cccnc12 (stereo not drawn) [pamaquine] | 4.38
CC(C)(C)NC[C@H](O)COc1ccccc1C1CCCC1 [penbutolol] | 4.02
CC(C)=CCN1CCC2(C)c3cc(O)ccc3CC1C2C (stereo not drawn) [pentazocine] | 4.15
CCCN1C[C@H](CSC)C[C@@H]2c3cccc4[nH]cc(c34)C[C@H]21 [pergolide] | 3.90
C1CCC(C(CC2CCCCN2)C2CCCCC2)CC1 (stereo not drawn) [perhexilene] | 6.46
OCCN1CCN(CCCN2c3ccccc3Sc3ccc(Cl)cc32)CC1 [perphenazine] | 3.94
c1ccc(C2(N3CCCCC3)CCCCC2)cc1 [phencyclidine] | 4.25
CN1CCC2=C(C1)C(c1ccccc1)c1ccccc12 (stereo not drawn) [phenindamine] | 3.81
O=C1c2ccccc2C(=O)C1c1ccccc1 [phenindione] | 3.19
CC(COc1ccccc1)N(CCCl)Cc1ccccc1 (stereo not drawn) [phenoxybenzamine] | 3.69
Cc1ccc(N(CC2=NCCN2)c2cccc(O)c2)cc1 [phentolamine] | 4.08
CN(C)CCOc1ccccc1Cc1ccccc1 [phenyltoloxamine] | 3.46
O=c1[nH]c2ccccc2n1C1CCN(CCCC(c2ccc(F)cc2)c2ccc(F)cc2)CC1 [pimozide] | 5.57
OC(c1ccccc1)(c1ccccc1)C1CCCCN1 (stereo not drawn) [pipradrol] | 3.61
CC(C)(C)C(=O)OCOC(=O)[C@@H]1N2C(=O)[C@@H](NC(=O)[C@H](N)c3ccccc3)[C@H]2SC1(C)C [pivampicillin] | 3.88
CC(=O)Oc1cc2c(s1)CCN(C(C(=O)C1CC1)c1ccccc1F)C2 (stereo not drawn) [prasugel] | 4.31
O=C1CN=C(c2ccccc2)c2cc(Cl)ccc2N1CC1CC1 [prazepam] | 3.70
CN1CCN(CCCN2c3ccccc3Sc3ccc(Cl)cc32)CC1 [prochlorperazine] | 4.65
CN(C)CCCN1c2ccccc2Sc2ccccc21 [promazine] | 4.69
CC(CN1c2ccccc2Sc2ccccc21)N(C)C (stereo not drawn) [promethazine] | 4.89
CCC(=O)O[C@](Cc1ccccc1)(c1ccccc1)[C@H](C)CN(C)C [propoxyphene] | 4.10
c1ccc2c(c1)Sc1ccccc1N2CCN1CCCC1 [pyrathiazine] | 4.15
Clc1ccc(C/C(=C\CN2CCCC2)c2ccccc2)cc1 [pyrrobutamine] | 4.57
CCN(CC)CCCC(C)Nc1c2ccc(Cl)cc2nc2ccc(OC)cc12 (stereo not drawn) [quinacrine] | 5.59

Molecule | log P
COC(=O)[C@H]1[C@H]2C[C@@H]3c4[nH]c5cc(OC)ccc5c4CCN3C[C@H]2C[C@@H](OC(=O)c2cc(OC)c(OC)c(OC)c2)[C@@H]1OC [reserpine] | 3.65
OCc1cc(C(O)CNCCCCCCOCCCCc2ccccc2)ccc1O (stereo not drawn) [salmeterol] | 3.71
O=C(Oc1ccccc1C(=O)O)c1ccccc1O [salsalate] | 3.29
CN[C@H]1CC[C@@H](c2ccc(Cl)c(Cl)c2)c2ccccc21 [sertraline] | 5.08
O=C(CCCN1CCC2(CC1)C(=O)NCN2c1ccccc1)c1ccc(F)cc1 [spiperone] | 3.25
O=C(O)c1cc(/N=N/c2ccc(S(=O)(=O)Nc3ccccn3)cc2)ccc1O [sulfasalazine] | 3.05
CCCCNc1ccc(C(=O)OCCN(C)C)cc1 [tetracaine] | 3.75
CCCCCc1cc(O)c2c(c1)OC(C)(C)[C@@H]1CCC(C)=C[C@@H]21 [tetrahydrocannabinol] | 6.84
CC(=O)OCCN1CCN(CCCN2c3ccccc3Sc3ccc(Cl)cc32)CC1 [thiopropazate] | 4.76
CSc1ccc2c(c1)N(CCC1CCCCN1C)c1ccccc1S2 (stereo not drawn) [thioridazine] | 5.90
Cc1ccsc1C(=CCCN1CCC[C@@H](C(=O)O)C1)c1sccc1C [tiagabine] | 4.03
O=C(O)COc1ccc(C(=O)c2cccs2)c(Cl)c1Cl [ticrynfen] | 3.05
Cc1ccc(O)c([C@H](CCN(C(C)C)C(C)C)c2ccccc2)c1 [tolterodine] | 5.23
CN1CCN(CCCN2c3ccccc3Sc3ccc(C(F)(F)F)cc32)CC1 [trifluoperazine] | 4.62
CN(C)CCCN1c2ccccc2Sc2ccc(C(F)(F)F)cc21 [triflupromazine] | 5.16
CC(CN(C)C)CN1c2ccccc2Sc2ccccc21 (stereo not drawn) [trimeprazine] | 5.04
CC(CN(C)C)CN1c2ccccc2CCc2ccccc21 (stereo not drawn) [trimipramine] | 4.71
Cc1ccc(/C(=C\CN2CCCC2)c2ccccn2)cc1 [triprolidine] | 3.25
CO[C@H]1C[C@H](O[C@H]2[C@H](C)[C@@H](O[C@@H]3O[C@H](C)C[C@H](N(C)C)[C@H]3OC(C)=O)[C@@H](C)C[C@@]3(CO3)C(=O)[C@H](C)[C@@H](OC(C)=O)[C@@H](C)[C@@H](C)OC(=O)[C@@H]2C)O[C@@H](C)[C@@H]1OC(C)=O [troleandomycin] | 3.46
CC[C@]1(O)C[C@@H]2CN(CCc3c([nH]c4ccccc34)[C@@](C(=O)OC)(c3cc4c(cc3OC)N(C)[C@H]3[C@@](O)(C(=O)OC)[C@H](OC(C)=O)[C@]5(CC)C=CCN6CC[C@]43[C@@H]65)C2)C1 [vinblastine] | 5.92
CC[C@]1(O)C[C@H]2CN(CCc3c([nH]c4ccccc34)[C@@](C(=O)OC)(c3cc4c(cc3OC)N(C=O)[C@H]3[C@@](O)(C(=O)OC)[C@H](OC(C)=O)[C@]5(CC)C=CCN6CC[C@]43[C@@H]65)C2)C1 [vincristine] | 5.75
CC[C@]1(O)C[C@@H]2CN(CCc3c([nH]c4ccccc34)[C@@](C(=O)OC)(c3cc4c(cc3OC)N(C)[C@H]3[C@@](O)(C(N)=O)[C@H](O)[C@]5(CC)C=CCN6CC[C@]43[C@@H]65)C2)C1 [vindesine] | 4.94
CC(=O)CC(c1ccccc1)c1c(O)c2ccccc2oc1=O (stereo not drawn) [warfarin] | 3.13
CN(C)C/C=C(/c1ccc(Br)cc1)c1cccnc1 [zimeldine] | 3.07
iodoquinol | 4.10
